From patent US7008940B1, “Dihydrobenzofuran derivatives, process for the preparing thereof and agents” (Takeda Pharmaceutical Company Limited, priority 1999, dated 2006) come the findings set out here.

Structures can show the parent of a compound that is named as a salt.

The test concerns lipid peroxidation in rat cerebral cortical homogeneates. Description: Inhibitory effect on lipid peroxidation in rat cerebral cortical homogenates (thiobarbituric acid method). It counts as biochemical. As to conditions: lipoperoxide production in Jcl. Wistar rat cerebral cortex homogenate supernatant, 37° C. for 30 minutes, absorbance at 532 nm, vs DMSO-added group. On the procedure: Inhibitory effect on lipid peroxidation in rat cerebral cortical homogeneates and oral administration to mouse.
Quantitative determination of lipoperoxide produced in brain homogenate was performed according to the method of Stocks et al. (Clin. Sci. Mol. Med. 47–215(1974)). As animals, brains of Jcl. Wistar male rats, 10–13 weeks age, were used. Rat cerebral cortices were obtained after decapitation, homogenized in an ice-cooled phosphate saline buffer (50 mM Ph 7.4) (Nichion Microhomogenizer, S-310E), centrifuged at 10,000 g for 10 minutes (Hitachi CF15D type, RT15A6 Anglerotor), and the supernatant was used in a test. This supernatant was diluted 3-fold with the same buffer. To this 1 mL were added 10 μL of test drugs dissolved in dimethyl sulfoxide (DMSO) to the final concentration of 0.0125, 0.025, 0.05, 0.10, 0.20, 0.40, 0.80 and 1.60 μM, respectively, which was incubated at 37° C. for 30 minutes. The reaction was stopped by addition of 200 μL of 35% perchloric acid, and centrifuged at 13,000 g for 10 minutes. To 1 mL of this supernatant was added 0.5 mL of 2-thiobarbituric acid (500 mg/100 mL) dissolved in 50% acetic acid, heated to boil at 95° C. for 15 minutes, which was determined by the absorbance at 532 nm. […]

Take `Cc1c(C)c2c(c3c1NC(C)(C)C3)CC(C)(CN1CCC(NC(c3ccccc3)c3ccccc3)CC1)O2` (centres unmarked) [Example 11, N-(Diphenylmethyl)-1-[(1,6,7,8-tetrahydro-2,4,5,7,7-pentamethyl-2H-furo[3,2-e]indol-2-yl)methyl]-4-piperidineamine dihydrochloride]: the half-maximal inhibitory concentration (IC50) (in general, the concentration at which inhibition is half-maximal) was 57 nM.

Take `Cc1c(C)c2c(c3c1NC(C)(C)C3)CC(C)(C)O2` [Example 3, 1,6,7,8-Tetrahydro-2,2,4,5,7,7-hexamethyl-2H-furo [3,2-e]indole oxalate]: it took 127 nM to reach half-maximal inhibition (IC50). Against the preceding compound, the IC50 is about 2.2-fold higher.
